The AC50 is the midpoint of the concentration-response curve, whichever way the signal moves. A low value points to greater potency.

In experiment [1] the target is Gamma-aminobutyric acid receptor subunit alpha-1/alpha-2/beta-2/gamma-2 (Homo sapiens, UniProt P14867+P18507+P47869+P47870). In kind it is functional, cell-based.
Experiment [2] has as its target T1, Corticotropin-releasing factor receptor 2 (Homo sapiens, UniProt Q13324).
T1 sequence (Q13324 whole entry): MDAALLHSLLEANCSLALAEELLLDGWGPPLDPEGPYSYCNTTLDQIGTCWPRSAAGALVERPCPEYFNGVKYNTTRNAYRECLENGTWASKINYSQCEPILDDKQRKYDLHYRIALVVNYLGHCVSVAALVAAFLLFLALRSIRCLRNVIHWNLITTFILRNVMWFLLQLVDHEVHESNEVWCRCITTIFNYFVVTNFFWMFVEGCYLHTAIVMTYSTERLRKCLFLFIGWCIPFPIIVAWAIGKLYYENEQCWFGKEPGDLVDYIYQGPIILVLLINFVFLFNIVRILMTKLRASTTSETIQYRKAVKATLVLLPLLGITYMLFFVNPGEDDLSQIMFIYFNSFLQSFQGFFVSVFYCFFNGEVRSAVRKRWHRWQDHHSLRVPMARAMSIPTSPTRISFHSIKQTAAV

Experiment [3] has as its target Histamine H2 receptor (Homo sapiens, UniProt P25021).
Experiment [4] deals with T2, Neuropeptide Y receptor type 2 (Homo sapiens, UniProt P49146).
T2 sequence (P49146 whole entry): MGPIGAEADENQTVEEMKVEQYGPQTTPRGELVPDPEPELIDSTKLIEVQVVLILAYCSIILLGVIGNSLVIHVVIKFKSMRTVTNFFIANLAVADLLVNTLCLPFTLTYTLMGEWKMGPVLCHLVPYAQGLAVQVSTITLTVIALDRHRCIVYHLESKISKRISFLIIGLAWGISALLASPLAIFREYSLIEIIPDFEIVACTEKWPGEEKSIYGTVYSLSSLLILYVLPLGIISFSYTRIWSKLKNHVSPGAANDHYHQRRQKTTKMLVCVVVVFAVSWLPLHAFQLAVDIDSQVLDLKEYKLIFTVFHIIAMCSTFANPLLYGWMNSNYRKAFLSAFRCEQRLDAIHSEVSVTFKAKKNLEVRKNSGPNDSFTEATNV

The target of experiment [5] is T3, Progesterone receptor (Homo sapiens, UniProt P06401).
T3 sequence (P06401 whole entry): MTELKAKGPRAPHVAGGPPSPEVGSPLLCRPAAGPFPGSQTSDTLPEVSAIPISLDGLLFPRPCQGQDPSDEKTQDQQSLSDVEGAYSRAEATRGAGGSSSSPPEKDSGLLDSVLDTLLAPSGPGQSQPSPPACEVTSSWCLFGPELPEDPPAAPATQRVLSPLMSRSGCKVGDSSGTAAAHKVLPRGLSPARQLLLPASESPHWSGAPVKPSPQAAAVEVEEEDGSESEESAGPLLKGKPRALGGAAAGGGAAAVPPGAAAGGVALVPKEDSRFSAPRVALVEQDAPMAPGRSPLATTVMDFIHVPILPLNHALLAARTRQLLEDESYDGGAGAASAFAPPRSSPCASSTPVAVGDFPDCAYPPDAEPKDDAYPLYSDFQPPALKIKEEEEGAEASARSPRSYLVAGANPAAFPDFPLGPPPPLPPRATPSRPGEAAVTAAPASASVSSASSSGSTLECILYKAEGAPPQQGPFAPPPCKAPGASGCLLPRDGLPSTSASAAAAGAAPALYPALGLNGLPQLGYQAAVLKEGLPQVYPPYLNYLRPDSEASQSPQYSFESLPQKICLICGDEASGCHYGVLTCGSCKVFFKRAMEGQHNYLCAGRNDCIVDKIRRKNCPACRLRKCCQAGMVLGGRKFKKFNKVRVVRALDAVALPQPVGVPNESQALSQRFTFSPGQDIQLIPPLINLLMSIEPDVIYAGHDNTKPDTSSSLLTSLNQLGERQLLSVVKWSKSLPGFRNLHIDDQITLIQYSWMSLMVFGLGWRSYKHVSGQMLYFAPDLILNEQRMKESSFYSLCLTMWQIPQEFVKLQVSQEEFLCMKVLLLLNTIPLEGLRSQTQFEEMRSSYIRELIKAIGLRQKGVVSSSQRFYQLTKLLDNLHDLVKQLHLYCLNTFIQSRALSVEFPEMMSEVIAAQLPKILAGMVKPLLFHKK

In experiment [6] the target is T4, Alpha-2A adrenergic receptor (Homo sapiens, UniProt P08913).
T4 sequence (P08913 whole entry): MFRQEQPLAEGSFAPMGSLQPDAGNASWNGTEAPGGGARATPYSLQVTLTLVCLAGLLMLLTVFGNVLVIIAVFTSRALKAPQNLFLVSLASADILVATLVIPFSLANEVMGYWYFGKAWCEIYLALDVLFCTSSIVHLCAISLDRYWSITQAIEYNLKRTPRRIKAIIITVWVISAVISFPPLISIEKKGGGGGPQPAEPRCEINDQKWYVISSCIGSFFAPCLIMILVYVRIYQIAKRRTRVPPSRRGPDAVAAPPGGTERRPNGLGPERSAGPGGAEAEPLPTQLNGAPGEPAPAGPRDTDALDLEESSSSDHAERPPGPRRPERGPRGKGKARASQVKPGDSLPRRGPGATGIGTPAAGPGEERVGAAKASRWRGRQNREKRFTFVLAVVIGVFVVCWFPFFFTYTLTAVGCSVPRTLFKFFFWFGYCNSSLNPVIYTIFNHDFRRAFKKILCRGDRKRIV

Experiment [7] has as its target T5, 5-hydroxytryptamine receptor 1A (Homo sapiens, UniProt P08908).
T5 sequence (P08908 whole entry): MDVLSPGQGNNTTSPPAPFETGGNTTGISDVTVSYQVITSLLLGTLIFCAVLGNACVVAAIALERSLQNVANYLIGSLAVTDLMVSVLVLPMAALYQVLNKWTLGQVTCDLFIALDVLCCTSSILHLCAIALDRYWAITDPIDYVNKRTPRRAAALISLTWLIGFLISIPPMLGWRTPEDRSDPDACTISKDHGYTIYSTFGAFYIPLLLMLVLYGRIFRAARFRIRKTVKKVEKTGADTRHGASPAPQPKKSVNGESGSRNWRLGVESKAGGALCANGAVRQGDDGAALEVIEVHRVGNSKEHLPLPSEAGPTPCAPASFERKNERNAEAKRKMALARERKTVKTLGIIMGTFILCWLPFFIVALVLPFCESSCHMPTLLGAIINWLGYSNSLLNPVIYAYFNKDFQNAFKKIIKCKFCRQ

The structures appear in SMILES notation. Where only a bound is given, the exact number is not on record here.
Note: assay procedure not described here.

Histamine H2 receptor, sequence (P25021 whole entry): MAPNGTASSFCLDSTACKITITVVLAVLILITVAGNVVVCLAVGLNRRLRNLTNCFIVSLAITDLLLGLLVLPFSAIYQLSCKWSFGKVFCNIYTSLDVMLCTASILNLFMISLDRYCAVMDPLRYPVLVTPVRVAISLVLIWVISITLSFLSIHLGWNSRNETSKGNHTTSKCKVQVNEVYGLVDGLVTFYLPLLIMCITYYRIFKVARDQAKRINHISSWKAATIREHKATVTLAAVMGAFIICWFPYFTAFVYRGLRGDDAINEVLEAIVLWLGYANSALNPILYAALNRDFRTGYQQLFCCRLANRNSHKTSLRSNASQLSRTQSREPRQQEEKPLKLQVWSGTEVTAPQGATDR
Gamma-aminobutyric acid receptor subunit alpha-1/alpha-2/beta-2/gamma-2, sequence (P14867 whole entry): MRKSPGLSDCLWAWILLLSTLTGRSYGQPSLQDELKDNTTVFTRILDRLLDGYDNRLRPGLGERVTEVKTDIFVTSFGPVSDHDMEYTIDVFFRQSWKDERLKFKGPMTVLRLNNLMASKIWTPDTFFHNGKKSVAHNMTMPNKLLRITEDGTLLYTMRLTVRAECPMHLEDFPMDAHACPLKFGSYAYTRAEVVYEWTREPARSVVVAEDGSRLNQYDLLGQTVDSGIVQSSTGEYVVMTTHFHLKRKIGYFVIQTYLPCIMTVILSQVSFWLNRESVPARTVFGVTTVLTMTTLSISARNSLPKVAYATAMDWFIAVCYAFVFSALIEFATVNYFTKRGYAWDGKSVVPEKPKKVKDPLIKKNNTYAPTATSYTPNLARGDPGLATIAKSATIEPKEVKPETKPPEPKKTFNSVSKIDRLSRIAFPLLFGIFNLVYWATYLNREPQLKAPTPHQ
Gamma-aminobutyric acid receptor subunit alpha-1/alpha-2/beta-2/gamma-2, sequence (P47870 whole entry): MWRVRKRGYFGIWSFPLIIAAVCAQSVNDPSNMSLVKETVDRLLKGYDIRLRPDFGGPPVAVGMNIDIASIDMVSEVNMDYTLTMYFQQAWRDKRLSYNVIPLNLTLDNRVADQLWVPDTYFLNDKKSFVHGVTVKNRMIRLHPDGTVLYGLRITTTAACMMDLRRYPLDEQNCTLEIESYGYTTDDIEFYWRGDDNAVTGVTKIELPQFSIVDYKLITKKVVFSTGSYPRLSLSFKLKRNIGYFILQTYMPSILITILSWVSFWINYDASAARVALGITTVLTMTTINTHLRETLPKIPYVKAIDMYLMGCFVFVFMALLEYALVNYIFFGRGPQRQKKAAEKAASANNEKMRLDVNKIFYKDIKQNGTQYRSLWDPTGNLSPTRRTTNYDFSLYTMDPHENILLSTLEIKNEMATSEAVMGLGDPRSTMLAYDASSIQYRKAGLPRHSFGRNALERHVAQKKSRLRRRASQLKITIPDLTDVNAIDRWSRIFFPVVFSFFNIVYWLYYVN
Gamma-aminobutyric acid receptor subunit alpha-1/alpha-2/beta-2/gamma-2, sequence (P18507 whole entry): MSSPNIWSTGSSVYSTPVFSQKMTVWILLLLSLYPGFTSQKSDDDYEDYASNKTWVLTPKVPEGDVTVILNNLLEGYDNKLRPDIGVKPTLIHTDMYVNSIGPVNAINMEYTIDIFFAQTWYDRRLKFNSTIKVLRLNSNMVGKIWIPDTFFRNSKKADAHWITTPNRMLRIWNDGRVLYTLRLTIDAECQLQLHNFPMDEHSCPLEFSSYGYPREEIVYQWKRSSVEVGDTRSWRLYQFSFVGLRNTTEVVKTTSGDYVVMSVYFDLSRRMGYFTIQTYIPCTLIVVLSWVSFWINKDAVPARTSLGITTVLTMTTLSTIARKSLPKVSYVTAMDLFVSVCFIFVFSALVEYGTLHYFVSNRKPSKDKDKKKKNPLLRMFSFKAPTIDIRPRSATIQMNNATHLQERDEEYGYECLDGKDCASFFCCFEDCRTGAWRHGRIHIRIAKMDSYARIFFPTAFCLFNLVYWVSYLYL
Gamma-aminobutyric acid receptor subunit alpha-1/alpha-2/beta-2/gamma-2, sequence (P47869 whole entry): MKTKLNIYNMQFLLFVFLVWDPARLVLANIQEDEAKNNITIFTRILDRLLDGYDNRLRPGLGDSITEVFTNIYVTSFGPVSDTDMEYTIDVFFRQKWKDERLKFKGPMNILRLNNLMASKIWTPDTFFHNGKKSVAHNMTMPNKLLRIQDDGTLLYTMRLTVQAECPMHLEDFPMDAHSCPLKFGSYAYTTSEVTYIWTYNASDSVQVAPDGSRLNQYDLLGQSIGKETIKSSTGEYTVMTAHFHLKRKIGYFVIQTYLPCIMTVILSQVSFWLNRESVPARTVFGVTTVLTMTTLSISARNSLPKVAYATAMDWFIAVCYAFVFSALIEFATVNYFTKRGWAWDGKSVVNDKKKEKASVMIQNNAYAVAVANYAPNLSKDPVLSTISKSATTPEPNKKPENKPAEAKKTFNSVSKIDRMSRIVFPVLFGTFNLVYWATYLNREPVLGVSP

`C=C1CC[C@@]2(O)[C@H]3Cc4ccc(O)c5c4[C@@]2(CCN3CC2CC2)[C@H]1O5` displayed an AC50 in experiment [1] of over 30 µM.

For `Nc1ncnc2c1ncn2[C@@H]1O[C@H](COP(=O)(O)O)[C@@H](O)[C@H]1O` [ADENOSINE PHOSPHATE], in experiment [1], the AC50 is over 30 µM.

For the compound `COc1ccc2cccc(CCNC(C)=O)c2c1` [AGOMELATINE], the AC50 in experiment [2] is over 30 µM; in experiment [3], over 10 µM; in experiment [4], over 30 µM; in experiment [5] it was over 30 µM; in experiment [6] it was over 10 µM; in experiment [7], over 10 µM.

In the case of `CC(C)c1c(C(=O)Nc2ccccc2)c(-c2ccccc2)c(-c2ccc(F)cc2)n1CC[C@@H](O)C[C@@H](O)CC(=O)O` [ATORVASTATIN], the AC50 in experiment [2] was over 30 µM; in experiment [3], over 10 µM; in experiment [4], over 30 µM; in experiment [5] it was over 30 µM; in experiment [6], over 10 µM; in experiment [7], over 10 µM.

For `Cc1cc2c(OCC(CNC(C)(C)C)OC(=O)c3ccccc3)cccc2[nH]1` (centres undefined) [BOPINDOLOL], half-maximal activity in experiment [7] (AC50) was put at 0.0522 µM.

Turning to `CCCCCOC(=O)Nc1nc(=O)n([C@@H]2O[C@H](C)[C@@H](O)[C@H]2O)cc1F` [CAPECITABINE], in experiment [1], the AC50 is over 30 µM.

In the case of `[H]/N=C(/N)c1ccc(NCc2nc3cc(C(=O)N(CCC(=O)O)c4ccccn4)ccc3n2C)cc1` [DABIGATRAN], the AC50 in experiment [1] was over 30 µM.

On to `CN[C@@H](C)[C@H](O)c1ccccc1` [EPHEDRINE], for which the AC50 in experiment [2] was over 30 µM; in experiment [3], over 10 µM; in experiment [4] it was over 30 µM; in experiment [5], over 30 µM; in experiment [6], over 10 µM; in experiment [7], over 10 µM.

Take `CCNC(C)Cc1cccc(C(F)(F)F)c1` (centres undefined) [FENFLURAMINE]: the AC50 in experiment [2], in experiment [4] and in experiment [5] was over 30 µM throughout.

In turn, `O=C1CN=C(c2ccccc2)c2cc(Cl)ccc2N1CC(F)(F)F` [HALAZEPAM] yielded an AC50 in experiment [1] of over 30 µM.

Compound `CN1CC[C@]23CCCC[C@H]2[C@H]1Cc1ccc(O)cc13` [LEVORPHANOL] had an AC50 in experiment [6] of 19 µM.

For the compound `CCN1CCC[C@H]1CNC(=O)c1cc(S(N)(=O)=O)ccc1OC` [LEVOSULPIRIDE], the AC50 in experiment [5] was over 30 µM; in experiment [6], over 10 µM; in experiment [7], over 10 µM.

`CC/C=C\C/C=C\C/C=C\CCCCCCCC(=O)O` [LINOLENIC ACID]: in experiment [1], the AC50 is over 10 µM.

On to `Cc1cccc(C)c1NC(=O)C1CCCCN1C` (centres undefined) [MEPIVACAINE], for which the AC50 in experiment [1] was over 30 µM.

With `C[C@H]1C[C@@H]2[C@H]([C@@H](O)C[C@@]3(C)[C@H]2CC[C@]3(O)C(=O)COC(=O)CCC(=O)O)[C@@]2(C)C=CC(=O)C=C12` [METHYLPREDNISOLONE HEMISUCCINATE], the AC50 in experiment [1] is over 30 µM.

The compound `CCCCC(C)(O)C/C=C/[C@H]1[C@H](O)CC(=O)[C@@H]1CCCCCCC(=O)OC` (some centres undefined) [MISOPROSTOL] had an AC50 in experiment [1] of over 30 µM.

As to `NC(=O)C[S+]([O-])C(c1ccccc1)c1ccccc1` (centres undefined) [MODAFINIL], the AC50 in experiment [2] was over 30 µM; in experiment [3], over 10 µM; in experiment [4], over 30 µM; in experiment [5], over 30 µM; in experiment [6], over 10 µM; in experiment [7], over 10 µM.

For `CCCCCCC(C)(C)c1cc(O)c2c(c1)OC(C)(C)C1CCC(=O)CC21` (centres undefined) [NABILONE], the AC50 in experiment [1] was over 30 µM.

In turn, `CCCCCCCCOc1ccccc1C(=O)Nc1ccc(C(=O)OCC[N+](C)(CC)CC)cc1` [OTILONIUM BROMIDE] registered an AC50 in experiment [7] of over 30 µM.

On to `CCN(CC)CCOC(=O)c1ccc(N)cc1` [PROCAINE], for which the figures for the AC50 in experiment [5], in experiment [6] and in experiment [7] were over 30 µM, over 10 µM and over 10 µM, respectively.

Regarding `CCCOc1ccc(C(=O)OCCN(CC)CC)cc1N` [PROPARACAINE], the AC50 in experiment [1] was over 30 µM.

The compound `Nc1nc2ccc(OC(F)(F)F)cc2s1` [RILUZOLE] displayed an AC50 in experiment [1] of over 30 µM.

Take `COc1ccc(C(=O)N2CCN(c3ccc4c(c3)CCC(=O)N4)CC2)cc1OC` [VESNARINONE]: the AC50 in experiment [1] was over 30 µM.

(Values after ChEMBL document CHEMBL5291721, “A preclinical secondary pharmacology resource illuminates target-adverse drug reaction associations of marketed drugs” (Nat Commun, 2023).)
